In brackets after ≈: the same amount, converted by molar mass.
Experiments:
[1] = test system: T1, Staphylococcus aureus ATCC 29213 (SA29213); assay: microbe, parasite or virus in culture; parameters: broth microdilution MIC (CLSI), growth inhibition read by MTT; conditions: ATCC29213, 24 h, read-out: MIC
T1 construct: ATCC 29213
Description: Antibacterial activities of synthetic compounds in vitro The MICs of the antibacterial agents for all strains were determined using the broth microdilution method according to CLSI guidelines. Wells of 96-well microtiter plates (Nunc, Thermo Fisher Scientific Inc., Roskilde) were inoculated with 100 µL of CAMH broth or CAMH broth with 3% lysed horse blood (S. pneumoniae only), containing serially-diluted antimicrobials and a final inoculum of 5 × 10^5 CFU/mL. The concentration ranges were from 0.0625 to 128 μg/mL for each compound: daptomycin, vancomycin, polymyxin B and oxacillin. The microtiter plates were incubated at 37 °C for 24 h. The MIC was defined as the lowest concentration of an antimicrobial agent that inhibited 90% of bacterial growth determined by the MTT assay (MCE, USA)]. All MIC determinations were performed in duplicate.

WalK (erWalK) = biological target: T2, WalK (erWalK) (Staphylococcus aureus, UniProt Q6GKS6); assay: SPR (Biacore 8K, CM5 chip); type: binding
T2 construct: extracellular part of the receptor WalK (erWalK, residues 35-182)

WalK (erWalKR86C) = biological target: T3, WalK (erWalKR86C) (Staphylococcus aureus, UniProt Q6GKS6, R86C); assay: SPR (Biacore 8K, CM5 chip); type: binding
T3 construct: erWalK (residues 35-182) with R86C mutation
T3 sequence (Q6GKS6 35-182 R86C): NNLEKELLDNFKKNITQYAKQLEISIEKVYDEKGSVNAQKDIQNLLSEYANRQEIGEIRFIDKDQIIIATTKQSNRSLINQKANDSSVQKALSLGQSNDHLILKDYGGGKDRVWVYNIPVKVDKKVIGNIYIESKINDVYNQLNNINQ

| Structure (SMILES) | MIC [1] [µg/mL] | Kd (WalK (erWalK)) [µM] | Kd (WalK (erWalKR86C)) [µM] |
| --- | --- | --- | --- |
| C[C@@H](O)[C@H]1C(=O)N2C(C(=O)O)=C(S[C@@H]3CN[C@H](C(=O)N(C)C)C3)[C@H](C)[C@H]12 [Meropenem] | 0.312 (≈ 0.815 µM) |  |  |
| CC(=O)NC[C@H]1CN(c2ccc(N3CCOCC3)c(F)c2)C(=O)O1 [Linezolid] | 2.5 (≈ 7.41 µM) |  |  |
| NC[C@H]1O[C@H](O[C@H]2[C@H](O)[C@@H](O[C@H]3O[C@H](CO)[C@@H](O)[C@H](N)[C@H]3O)[C@H](N)C[C@@H]2N)[C@H](O)[C@@H](O)[C@@H]1O [Kanamycin] | 10 (≈ 20.6 µM) |  |  |
| CC1COc2c(N3CCN(C)CC3)c(F)cc3c(=O)c(C(=O)O)cn1c23 (stereo not drawn) [Ofloxacin] | 0.2 (≈ 0.553 µM) |  |  |
| CN[C@H](CC(C)C)C(=O)N[C@H]1C(=O)N[C@@H](CC(N)=O)C(=O)N[C@H]2C(=O)N[C@H]3C(=O)N[C@H](C(=O)N[C@H](C(=O)O)c4cc(O)cc(O)c4-c4cc3ccc4O)[C@H](O)c3ccc(c(Cl)c3)Oc3cc2cc(c3O[C@@H]2O[C@H](CO)[C@@H](O)[C@H](O)[C@H]2O[C@H]2C[C@](C)(N)[C@H](O)[C@H](C)O2)Oc2ccc(cc2Cl)[C@H]1O [Vancomycin] | 1 (≈ 0.69 µM) |  |  |
| CN(C)c1cc(NC(=O)CNC(C)(C)C)c(O)c2c1C[C@H]1C[C@H]3[C@H](N(C)C)C(O)=C(C(N)=O)C(=O)[C@@]3(O)C(O)=C1C2=O [Tigecycline] | 0.312 (≈ 0.534 µM) |  |  |
| CC(C)C(=O)c1c(O)c(C(C2=C(O)C(C)(C)C(=O)C(C)(C)C2=O)C(C)C)c(O)c2c1OC1=C(C(=O)C(C)(C)C(=O)C1(C)C)C2C(C)C (stereo not drawn) [compound 22, 22] | 0.5 (≈ 0.768 µM) | 11.1 | 73.8 |

— paper PMC11245619, “Asymmetric total synthesis of polycyclic xanthenes and discovery of a WalK activator active against MRSA” (Nature Communications, 2024)
